Key:
CDK12 = biological target: T1, CDK12 (Homo sapiens, UniProt Q9NYV4); assay: CDK12 nuclear protein level: immunofluorescence/high content analysis in CAL-120 cells; format: cell-based; conditions: for DC50: CAL-120 cells, 24 h, nuclear CDK12 staining, read-out: CDK12 degradation IF DC50-[mol/l] (median); for (IC50 CDK12 high ATP) to (Degradation DC50 CDK12) ratio: IC50 CDK12 hATP (Table 2) divided by DC50 CDK12 IF (Table 8)
T1 construct: endogenous in cells; host or cells: CAL-120 human breast cancer cells (DSMZ ACC 459)
T1 sequence (Q9NYV4 whole entry): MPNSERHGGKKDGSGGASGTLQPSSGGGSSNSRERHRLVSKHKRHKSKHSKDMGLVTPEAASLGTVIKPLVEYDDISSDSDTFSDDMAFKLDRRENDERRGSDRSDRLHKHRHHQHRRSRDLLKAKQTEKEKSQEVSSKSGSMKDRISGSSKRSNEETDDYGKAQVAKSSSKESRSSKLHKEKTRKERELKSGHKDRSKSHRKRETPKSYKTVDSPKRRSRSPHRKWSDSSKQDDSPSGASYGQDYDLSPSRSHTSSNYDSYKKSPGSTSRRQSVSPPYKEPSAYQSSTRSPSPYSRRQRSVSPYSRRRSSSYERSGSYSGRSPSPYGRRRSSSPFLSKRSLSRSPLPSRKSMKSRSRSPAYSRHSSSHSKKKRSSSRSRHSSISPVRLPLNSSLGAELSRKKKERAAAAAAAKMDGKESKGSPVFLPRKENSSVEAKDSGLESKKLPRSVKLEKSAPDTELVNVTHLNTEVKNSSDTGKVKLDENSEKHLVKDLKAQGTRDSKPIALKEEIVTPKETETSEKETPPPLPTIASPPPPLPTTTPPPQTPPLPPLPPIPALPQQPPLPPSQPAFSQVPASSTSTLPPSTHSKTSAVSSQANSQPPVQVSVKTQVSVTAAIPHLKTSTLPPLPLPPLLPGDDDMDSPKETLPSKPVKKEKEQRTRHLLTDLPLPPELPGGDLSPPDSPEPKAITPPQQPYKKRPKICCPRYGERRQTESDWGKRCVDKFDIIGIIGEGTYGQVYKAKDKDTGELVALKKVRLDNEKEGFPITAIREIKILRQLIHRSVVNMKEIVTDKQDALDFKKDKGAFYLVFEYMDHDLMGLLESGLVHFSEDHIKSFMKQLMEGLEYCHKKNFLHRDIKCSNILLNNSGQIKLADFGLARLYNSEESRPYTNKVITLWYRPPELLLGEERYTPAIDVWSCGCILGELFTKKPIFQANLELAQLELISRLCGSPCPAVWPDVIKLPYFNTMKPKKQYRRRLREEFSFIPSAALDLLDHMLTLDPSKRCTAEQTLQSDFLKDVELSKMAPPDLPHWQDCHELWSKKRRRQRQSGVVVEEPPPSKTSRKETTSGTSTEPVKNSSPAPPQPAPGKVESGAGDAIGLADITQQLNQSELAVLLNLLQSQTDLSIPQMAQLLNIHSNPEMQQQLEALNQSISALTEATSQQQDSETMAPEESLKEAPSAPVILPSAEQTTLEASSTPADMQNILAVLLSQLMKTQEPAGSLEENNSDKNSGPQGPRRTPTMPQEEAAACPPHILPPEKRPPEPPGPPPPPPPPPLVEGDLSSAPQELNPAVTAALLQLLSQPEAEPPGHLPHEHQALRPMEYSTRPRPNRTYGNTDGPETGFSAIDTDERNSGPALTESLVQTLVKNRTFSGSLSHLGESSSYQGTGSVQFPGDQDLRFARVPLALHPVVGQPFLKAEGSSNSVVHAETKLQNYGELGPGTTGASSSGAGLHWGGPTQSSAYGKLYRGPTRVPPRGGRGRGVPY
T1 sequence (O75909 whole entry partner): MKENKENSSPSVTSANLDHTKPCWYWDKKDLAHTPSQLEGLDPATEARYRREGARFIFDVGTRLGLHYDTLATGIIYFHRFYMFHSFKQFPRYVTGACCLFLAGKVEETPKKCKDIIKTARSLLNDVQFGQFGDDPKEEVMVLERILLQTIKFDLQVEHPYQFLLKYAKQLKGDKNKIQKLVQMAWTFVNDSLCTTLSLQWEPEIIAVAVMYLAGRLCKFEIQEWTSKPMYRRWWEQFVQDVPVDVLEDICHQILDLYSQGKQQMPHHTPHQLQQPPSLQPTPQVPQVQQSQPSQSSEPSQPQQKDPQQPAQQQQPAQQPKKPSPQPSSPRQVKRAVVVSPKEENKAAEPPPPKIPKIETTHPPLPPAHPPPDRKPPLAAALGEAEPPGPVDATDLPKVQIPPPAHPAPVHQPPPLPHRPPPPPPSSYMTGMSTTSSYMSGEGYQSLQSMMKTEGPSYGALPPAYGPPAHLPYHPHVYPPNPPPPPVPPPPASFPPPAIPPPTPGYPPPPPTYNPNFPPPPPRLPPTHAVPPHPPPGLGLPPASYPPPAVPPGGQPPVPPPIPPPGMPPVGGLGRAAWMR
Method: In the context of the present invention, the term “DC50 CDK12” refers to the DC50 values obtained according to the assay described in this section (6) herein below, i.e. the DC50 values for the degradation of CDK12.
CAL-120 human breast cancer cells (DSMZ ACC 459) are seeded in 1536-well microtiter plates (800 cells per well) containing 50 nanoL of compounds in Dose-Response. Control wells received DMSO or Reference Example 1. Plates are then incubated for 24 h at 37° C. in an humidified incubator and fixed with 4% PFA for 10 min. Then immunofluorescence (IF) against CDK12 (CellSignalling CDK12 Antibody #11973, rabbit, 1:100 dilution) is performed using standard IF protocols. Cells are then stained with Hoechst 33342 (Life Technologies, H-1399, 0.1 microg/ml) and imaged on an automated confocal microscopy system (e.g. Perkin Elmer Opera Phenix). Nuclear and cytoplasmic intensity as well as the nuclear/cytoplasmic intensity ratio is determined by automated image analysis using custom generated scripts (MetaXpress). Data is then transferred to Genedata Screener software, normalized to DMSO and control and DC50 values (degrading concentration to achieve 50% reduction of nuclear CDK12 staining intensity relative to controls) are reported.

[1] = system: MDA-MB-231 human breast cancer cells; assay: Proliferation assay MDA-MB-231 (crystal violet); format: cell-based; conditions: 96 h, MDA-MB-231 cells, 4 days, read-out: Prolif-MDA MB231 IC50-[mol/l] (median)
Method: Human tumour cells were originally obtained from the American Type Culture Collection (ATCC), or from the Deutsche Sammlung von Mikroorganismen und Zellkulturen (DSMZ, German Collection of Microorganisms and Cell Cultures). Cultivated tumour cells (CAL-120, human breast adenocarcinoma cells, DSMZ ACC-459; MDA-MB-231, human breast cancer cells, ATCC HTB-26) were plated at a density of 4,000 cells/well in a 96-well multititer plate in 200 microL of their respective growth medium supplemented 10% fetal calf serum. After 24 hours, the cells of one plate (zero-point plate) were stained with crystal violet (see below), while the medium of the other plates was supplemented with the test substances in various concentrations (0 micromol/L, as well as in the range of 0.01-10 micromol/L; the final concentration of the solvent dimethyl sulfoxide was adjusted to 0.1%) using a Tecan HP D300 Digital Dispenser. The cells were incubated for 4 days in the presence of test substances. Cell proliferation was determined by staining the cells with crystal violet: the cells were fixed by adding 20 microL/measuring point of an 11% glutaric aldehyde solution for 15 minutes at room temperature. After three washing cycles of the fixed cells with water, the plates were dried at room temperature. The cells were stained by adding 100 microL/measuring point of a 0.1% crystal violet solution (pH 3.0). After three washing cycles of the stained cells with water, the plates were dried at room temperature. The dye was dissolved by adding 100 microL/measuring point of a 10% acetic acid solution. The extinction was determined by photometry at a wavelength of 595 nm. The change of cell number, in percent, was calculated by normalization of the measured values to the extinction values of the zero-point plate (=0%) and the extinction of the untreated (0 μM) cells (=100%). The IC50 values (inhibitory concentration at 50% of maximal effect) were determined by means of a 4 parameter fit.

Row | DC50 (CDK12) | (IC50 CDK12 high ATP) to (Degradation DC50 CDK12) ratio (CDK12) | IC50 [1] | SMILES
1 | 1.1 nM | 10 | 1.91 nM | Fc1ccc2[nH]c(CNc3nc(N4CCOCC4)nn4c(C(F)(F)F)cnc34)nc2c1F [Example 27, N-[(4,5-difluoro-1H-benzimidazol-2-yl)methyl]-2-(morpholin-4-yl)-7-(trifluoromethyl)imidazo[2,1-f][1,2,4]triazin-4-amine]
2 | 0.58 nM | 2887 | 2.83 nM | CN1CCN(c2nc(NCc3nc4c(F)c(F)ccc4[nH]3)c3ncc(C(F)(F)F)n3n2)CC1 [Example 28, N-[(4,5-difluoro-1H-benzimidazol-2-yl)methyl]-2-(4-methylpiperazin-1-yl)-7-(trifluoromethyl)imidazo[2,1-f][1,2,4]triazin-4-amine]
3 | 0.229 nM | 177 | 0.839 nM | C[C@@H]1CN(c2nc(NCc3nc4c(F)c(F)ccc4[nH]3)c3ncc(C(F)(F)F)n3n2)C[C@H](C)N1 [Example 29, N-[(4,5-difluoro-1H-benzimidazol-2-yl)methyl]-2-[rel-(3R,5S)-3,5-dimethylpiperazin-1-yl]-7-(trifluoromethyl)imidazo[2,1-f][1,2,4]triazin-4-amine]
4 | 13.8 nM | 12 | 17.3 nM | CN(CC(C)(C)O)c1nc(NCc2nc3ccccc3[nH]2)c2ncc(C(F)(F)F)n2n1 [Example 30, 1-[{4-[(1H-benzimidazol-2-ylmethyl)amino]-7-(trifluoromethyl)imidazo[2,1-f][1,2,4]triazin-2-yl}(methyl)amino]-2-methylpropan-2-ol]

Continued, compound first:

Row | SMILES | DC50 (CDK12) | (IC50 CDK12 high ATP) to (Degradation DC50 CDK12) ratio (CDK12) | IC50 [1]
5 | CN1CCN(c2nc(NCc3nc4cc(F)ccc4[nH]3)c3ncc(Br)n3n2)CC1 [Example 21, 7-bromo-N-[(5-fluoro-1H-benzimidazol-2-yl)methyl]-2-(4-methylpiperazin-1-yl)imidazo[2,1-f][1,2,4]triazin-4-amine] | 2.78 nM | 5916 | 19.7 nM
6 | Fc1cccc2[nH]c(CNc3nc(N4CCNCC4)nn4c(Br)cnc34)nc12 [Example 22, 7-bromo-N-[(4-fluoro-1H-benzimidazol-2-yl)methyl]-2-(piperazin-1-yl)imidazo[2,1-f][1,2,4]triazin-4-amine] | 1.96 nM | 1305 | 4.41 nM
7 | CN1CCN(c2nc(NCc3nc4c(F)cccc4[nH]3)c3ncc(Br)n3n2)CC1 [Example 23, 7-bromo-N-[(4-fluoro-1H-benzimidazol-2-yl)methyl]-2-(4-methylpiperazin-1-yl)imidazo[2,1-f][1,2,4]triazin-4-amine] | 4.04 nM | 2680 | 34.3 nM
8 | C[C@@H]1CN(c2nc(NCc3nc4ccccc4[nH]3)c3ncc(C(F)(F)F)n3n2)C[C@H](C)N1.O=CO [Example 24, N-[(1H-benzimidazol-2-yl)methyl]-2-[rel-(3R,5S)-3,5-dimethylpiperazin-1-yl]-7-(trifluoromethyl)imidazo[2,1-f][1,2,4]triazin-4-amine Formate (1/1)] | 0.274 nM | 2691 | 1.52 nM
9 | CN1CCN(c2nc(NCc3nc4ccccc4[nH]3)c3ncc(C(F)(F)F)n3n2)CC1 [Example 25, N-[(1H-benzimidazol-2-yl)methyl]-2-(4-methylpiperazin-1-yl)-7-(trifluoromethyl)imidazo[2,1-f][1,2,4]triazin-4-amine] | 3.55 nM | 3050 | 13.2 nM
10 | FC(F)(F)c1cnc2c(NCc3nc4ccccc4[nH]3)nc(N3CCOCC3)nn12 [Example 26, N-[(1H-benzimidazol-2-yl)methyl]-2-(morpholin-4-yl)-7-(trifluoromethyl)imidazo[2,1-f][1,2,4]triazin-4-amine] | 4.79 nM | 36 | 7.21 nM

— patent US20230106032A1, “IMIDAZOTRIAZINES ACTING ON CANCER VIA INHIBITION OF CDK12” (Bayer Aktiengesellschaft, priority 2020, published 2023)
